Biological target: Genome polyprotein (Hepatitis C virus genotype 1b (isolate Con1), UniProt Q9WMX2)
Assay: Inhibition of […] 1b con1 NS5B polymerase assessed as [3H]UTP incorporation into acid insoluble RNA product

Chain of Genome polyprotein (Q9WMX2 2420-3010 limits assumed): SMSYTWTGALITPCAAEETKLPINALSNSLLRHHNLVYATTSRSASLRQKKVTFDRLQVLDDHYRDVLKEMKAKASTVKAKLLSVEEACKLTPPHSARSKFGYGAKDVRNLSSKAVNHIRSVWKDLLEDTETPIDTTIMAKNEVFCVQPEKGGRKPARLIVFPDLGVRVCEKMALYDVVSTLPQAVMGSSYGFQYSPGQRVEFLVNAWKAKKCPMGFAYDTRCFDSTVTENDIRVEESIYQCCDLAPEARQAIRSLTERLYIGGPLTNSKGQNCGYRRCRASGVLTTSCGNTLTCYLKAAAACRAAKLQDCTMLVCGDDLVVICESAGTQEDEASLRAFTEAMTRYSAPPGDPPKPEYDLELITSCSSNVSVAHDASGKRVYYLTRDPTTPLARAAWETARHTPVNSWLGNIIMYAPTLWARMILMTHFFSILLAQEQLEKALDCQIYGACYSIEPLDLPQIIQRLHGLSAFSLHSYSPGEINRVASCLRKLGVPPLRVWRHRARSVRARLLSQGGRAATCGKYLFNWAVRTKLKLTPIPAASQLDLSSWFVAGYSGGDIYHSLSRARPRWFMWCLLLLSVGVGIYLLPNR

IC50 [nM]	SMILES
8	CC(C)(C)CCN1C(=O)C(C2=Nc3ccc(NS(C)(=O)=O)cc3S(=O)(=O)C2)C(=O)[C@@H]1C(C)(C)C (stereo partly drawn) [N-{3-[(S)-5-tert-Butyl-1-(3,3-dimethyl-butyl)-4-hydroxy-2-oxo-2,5-dihydro-1H-pyrrol-3-yl]-1,1-dioxo-1,4-dihydro-1lambda*6*-benzo[1,4]thiazin-7-yl}-methanesulfonamide]
8	CC(C)(C)[C@H]1C(=O)C(C2=Nc3ccc(NS(C)(=O)=O)cc3S(=O)(=O)C2)C(=O)N1Cc1ccccc1 (stereo partly drawn) [N-[3-((S)-1-Benzyl-5-tert-butyl-4-hydroxy-2-oxo-2,5-dihydro-1H-pyrrol-3-yl)-1,1-dioxo-1,4-dihydro-1lambda*6*-benzo[1,4]thiazin-7-yl]-methanesulfonamide]
5	CC(C)(C)[C@H]1C(=O)C(C2=Nc3ccc(NS(C)(=O)=O)cc3S(=O)(=O)C2)C(=O)N1Cc1ccc(F)c(Cl)c1 (stereo partly drawn) [N-{3-[(S)-5-tert-Butyl-1-(3-chloro-4-fluoro-benzyl)-4-hydroxy-2-oxo-2,5-dihydro-1H-pyrrol-3-yl]-1,1-dioxo-1,4-dihydro-1lambda*6*-benzo[1,4]thiazin-7-yl}-methanesulfonamide]

The next lines start with the compound.

SMILES	IC50 [nM]
CC(C)CCN1C(=O)C(C2=Nc3ccc(NS(C)(=O)=O)cc3S(=O)(=O)C2)C(=O)[C@@H]1C(C)(C)C (stereo partly drawn) [N-{3-[(S)-5-tert-Butyl-4-hydroxy-1-(3-methyl-butyl)-2-oxo-2,5-dihydro-1H-pyrrol-3-yl]-1,1-dioxo-1,4-dihydro-1lambda*6*-benzo[1,4]thiazin-7-yl}-methanesulfonamide]	5
CC(=O)C1C(C2C(=O)[C@H](C(C)(C)C)N(Cc3ccc(F)cc3)C2=O)=Nc2ccc(NS(C)(=O)=O)cc2S1(=O)=O (stereo partly drawn) [N-{2-Acetyl-3-[(S)-5-tert-butyl-1-(4-fluoro-benzyl)-4-hydroxy-2-oxo-2,5-dihydro-1H-pyrrol-3-yl]-1,1-dioxo-1,4-dihydro-1lambda*6*-benzo[1,4]thiazin-7-yl}-methanesulfonamide]	4
CC(C)(C)[C@H]1C(=O)C(C2=Nc3ccc(NS(C)(=O)=O)cc3S(=O)(=O)C2)C(=O)N1Cc1ccc(F)cc1F (stereo partly drawn) [N-{3-[(S)-5-tert-Butyl-1-(2,4-difluoro-benzyl)-4-hydroxy-2-oxo-2,5-dihydro-1H-pyrrol-3-yl]-1,1-dioxo-1,4-dihydro-1lambda*6*-benzo[1,4]thiazin-7-yl}-methanesulfonamide]	13
COc1cc(CN2C(=O)C(C3=Nc4ccc(NS(C)(=O)=O)cc4S(=O)(=O)C3)C(=O)[C@@H]2C(C)(C)C)ccc1F (stereo partly drawn) [N-{3-[(S)-5-tert-Butyl-1-(4-fluoro-3-methoxy-benzyl)-4-hydroxy-2-oxo-2,5-dihydro-1H-pyrrol-3-yl]-1,1-dioxo-1,4-dihydro-1lambda*6*-benzo[1,4]thiazin-7-yl}-methanesulfonamide]	4

Reference: BindingDB's records for doi:10.1016/j.bmcl.2009.08.023 (Roche Palo Alto, 2009)
